Drawing on patent US9375006B2, “5- halogenopyrazole benzofuranyl carboxamides” (BAYER CROPSCIENCE AG, priority 2012, dated 2016), this text covers Eff. %, logP and chromatographic logP for 18 compounds.

In one data set the test system is Puccinia recondita. Description: In vivo preventive test on Puccinia recondita (brown rust on wheat). Particulars: wheat plants, preventive spray, grading 12 days after contamination. On the procedure: (§1) The active ingredients tested are prepared by homogenization in a mixture of acetone/tween/DMSO, and then diluted with water to obtain the desired active material concentration.
Wheat plants (“Scipion” variety), sown in starter cups on a 50/50 peat soil-pozzolana substrate and grown at 22° C., are treated at the 1-leaf stage (10 cm height) by spraying with the active ingredient prepared as described above. Plants, used as controls, are treated with the mixture of acetone/tween/DMSO/water not containing the active material.
After 24 hours, the plants are contaminated by spraying the leaves with an aqueous suspension of Puccinia […] spores (100 000 spores per ml). The spores are collected from an infected plant and are suspended in water containing 2.5 ml/l of Tween 80 at 10%. The contaminated wheat plants are incubated for 24 hours at 20° C. and at 100% relative humidity, and then for 10 days at 20° C. and at 70-80% relative humidity.
(§2) Grading (% of efficacy) is carried out 12 days after the contamination, in comparison with the control plants.

The nature of data set [1]: logP by HPLC on reversed phase columns (EEC directive 79/831 Annex V.A8). Type of data set: physicochemical. As to conditions: method [a]: LC-MS at pH 2.7, 0.1% formic acid in water / acetonitrile; for chromatographic logP: reversed phase HPLC columns. The procedure:
Measurement of log P values was performed according EEC directive 79/831 Annex V.A8 by HPLC (High Performance Liquid Chromatography) on reversed phase columns with the following methods: ^[a] Measurement of LC-MS was done at pH 2.7 with 0.1% formic acid in water and with acetonitrile (contains 0.1% formic acid) as eluent with a linear gradient from 10% acetonitrile to 95% acetonitrile. ^[b] Measurement with LC-MS was done at pH 7.8 with 0.001 molar ammonium hydrogen carbonate solution in water as eluent with a linear gradient from 10% acetonitrile to 95% acetonitrile.

A further data set relates to Uromyces appendiculatus. Nature of the data set: In vivo preventive test on Uromyces appendiculatus (bean rust). As to conditions: bean plants, preventive spray, grading 11 days after contamination. The procedure:
as §1
Bean plants (“Saxa” variety), sown in starter cups on a 50/50 peat soil-pozzolana substrate and grown at 24° C., are treated at the 2-leaf stage (9 cm height) by spraying with the active ingredient prepared as described above. Plants, used as controls, are treated with the mixture of acetone/tween/DMSO/water not containing the active material.
After 24 hours, the plants are contaminated by spraying the leaves with an aqueous suspension of Uromyces appendiculatus spores (150 000 spores per ml). The spores are collected from infected plants and are suspended in water containing 2.5 ml/l of Tween 80 at 10%. The contaminated bean plants are incubated for 24 hours at 20° C. and at 100% relative humidity, and then for 10 days at 20° C. and at 70-80% relative humidity.
Grading (% of efficacy) is carried out 11 days after the contamination, in comparison with the control plants.

Another data set concerns Alternaria brassicae. Description: In vivo preventive test on Alternaria brassicae (leaf spot on radish). As to conditions: 100 ppm, radish plants, preventive spray, grading 6 days after contamination. The procedure: Radish plants (“Pernod Clair” variety), sown in starter cups on a 50/50 peat soil-pozzolana substrate and grown at 17° C., are treated at the cotyledon stage by spraying with the active ingredient prepared as described above. Plants, used as controls, are treated with the mixture of acetone/tween/DMSO/water not containing the active material. After 24 hours, the plants are contaminated by spraying the cotyledons with an aqueous suspension of Alternaria brassicae spores (50 000 spores per ml). The spores are collected from a 15-day-old culture. The contaminated radish plants are incubated at 20° C. and at 100% relative humidity. Grading (% of efficacy) is carried out 6 days after the contamination, in comparison with the control plants.

A further data set concerns Sphaerotheca fuliginea. Description: In vivo preventive test on Sphaerotheca fuliginea (powdery mildew on cucurbits). As to conditions: 100 ppm, gherkin plants, preventive spray, grading 12 days after contamination. The procedure: (§3) The active ingredients tested are prepared by homogenization in a mixture of acetone/tween/DMSO and then diluted with water to obtain the desired active material concentration.
(§4) Gherkin plants (“Vert petit de Paris” variety), sown in starter cups on a 50/50 peat soil-pozzolana substrate and grown at 24° C., are treated at the Z11 cotyledon stage by spraying with the active ingredient prepared as described above. Plants, used as controls, are treated with the mixture of acetone/tween/DMSO/water not containing the active material.
After 24 hours, the plants are contaminated by spraying the cotyledons with an aqueous suspension of Sphaerotheca fuliginea spores (100 000 spores per ml). The spores are collected from infected plants. The contaminated gherkin plants are incubated at about 20° C. and at 70-80% relative humidity.
as §2

For the next data set, the system named is Botrytis cinerea. Nature of the data set: In vivo preventive test on Botrytis cinerea (grey mould), gherkin plants. Particulars: 100 ppm, preventive spray, grading 4 to 5 days after contamination. The procedure:
as §3, §4
After 24 hours, the plants are contaminated by spraying the cotyledons with an aqueous suspension of cryopreserved Botrytis cinerea spores (50 000 spores per ml). The spores are suspended in a nutrient solution composed of 10 g/L of PDB, 50 g/L of D-Fructose, 2 g/L of NH4NO3 and 1 g/L of KH2PO4. The contaminated gherkin plants are incubated at 17° C. and at 90% relative humidity.
Grading (% of efficacy) is carried out 4 to 5 days after the contamination, in comparison with the control plants.

A further data set concerns Pyrenophora teres. Nature of the data set: In vivo preventive test on Pyrenophora teres (net blotch on barley). Particulars: 100 ppm, barley plants, preventive spray, grading 14 days after contamination. The procedure: Barley plants (“Plaisant” variety), sown in starter cups on a 50/50 peat soil-pozzolana substrate and grown at 22° C., are treated at the 1-leaf stage (10 cm height) by spraying with the active ingredient prepared as described above. Plants, used as controls, are treated with the mixture of acetone/tween/DMSO/water not containing the active material. After 24 hours, the plants are contaminated by spraying the leaves with an aqueous suspension of Pyrenophora teres spores (12 000 spores per ml). The spores are collected from a 12-day-old culture. The contaminated barley plants are incubated for 48 hours at 20° C. and at 100% relative humidity, and then for 12 days at 20° C. at 70-80% relative humidity. Grading (% of efficacy) is carried out 14 days after the contamination, in comparison with the control plants.

On to `Cn1nc(C(F)F)c(C(=O)Nc2cccc3c2COC3(C)C)c1F` [Example 3], for which the Eff. % in the data set with Puccinia recondita (500 ppm) and in the data set on Uromyces appendiculatus (500 ppm) was 100% throughout. Also, the logP in data set [1] is 2.35[a].

Turning to `Cn1nc(C(F)F)c(C(=O)Nc2cccc3c2COC3(C)C)c1Cl` [Example 4], the Eff. % in the data set with Puccinia recondita (500 ppm) and in the data set on Uromyces appendiculatus (500 ppm) was 100% in each case. Further, the logP in data set [1] was 2.55[a].

Consider `CC1OC(C)(C)c2cccc(NC(=O)c3c(C(F)F)nn(C)c3Br)c21` (stereo not drawn) [Example 5], for which the Eff. % worked out at 97% in the data set with Puccinia recondita (500 ppm) and 100% with Uromyces appendiculatus (500 ppm). Also, the logP in data set [1] was 2.64[a].

As for `Cn1cc(C(=O)Nc2cccc3c2COC3(C)C)c(C(F)F)n1` [Example 7], the Eff. % is 98% with Puccinia recondita (500 ppm) and 100% with Uromyces appendiculatus (500 ppm). The logP in data set [1] was 2.1[a].

`CC1OC(C)(C)c2cccc(NC(=O)c3cn(C)nc3C(F)F)c21` (stereo not drawn) [Example 10]: the results for the Eff. % in the data set on Puccinia recondita (500 ppm) and in the data set on Uromyces appendiculatus (500 ppm) were 94% and 95%, respectively. Further, in data set [1], the logP was 2.15[a].

`CC(C)C1OC(C)(C)c2cccc(NC(=O)c3c(C(F)F)nn(C)c3Cl)c21` (stereo not drawn) [Example 14]: the Eff. % with Alternaria brassicae turned out to be 75%; in the data set with Puccinia recondita (100 ppm), 98%; with Sphaerotheca fuliginea it was 100%; in the data set with Botrytis cinerea, 93%; in the data set with Uromyces appendiculatus (100 ppm), 100%; in the data set with Pyrenophora teres it was 92%. Further, in data set [1], the logP is 3.33[a].

In the case of `CCC1OC(C)(C)c2cccc(NC(=O)c3c(C(F)F)nn(C)c3Cl)c21` (stereo not drawn) [Example 15], the Eff. % with Alternaria brassicae was 75%; in the data set on Puccinia recondita (100 ppm) it was 100%; in the data set with Sphaerotheca fuliginea it was 98%; in the data set on Uromyces appendiculatus (100 ppm), 100%; in the data set on Pyrenophora teres, 92%. Besides, the logP in data set [1] was 2.94[a].

As to `CCC1OC(C)(C)c2cccc(NC(=O)c3cn(C)nc3C(F)F)c21` (stereo not drawn) [Example 16], the Eff. % in the data set on Puccinia recondita (100 ppm) is 98%; with Sphaerotheca fuliginea, 98%; in the data set on Botrytis cinerea, 83%; with Uromyces appendiculatus (100 ppm), 100%; in the data set on Pyrenophora teres it was 83%.

For the compound `CC(C)C1OC(C)(C)c2cccc(NC(=O)c3c(C(F)F)nn(C)c3Br)c21` (stereo not drawn) [Example 17], the Eff. % with Puccinia recondita (100 ppm) was determined as 94%; in the data set on Uromyces appendiculatus (100 ppm), 100%; with Pyrenophora teres it was 83%. For the same compound, the logP in data set [1] was 3.33[a].

For the compound `CCC1OC(CC)(CC)c2cccc(NC(=O)c3c(C(F)F)nn(C)c3Cl)c21` (stereo not drawn) [Example 18], the Eff. % turned out to be 75% in the data set with Alternaria brassicae; 98% in the data set with Puccinia recondita (100 ppm); 100% in the data set on Sphaerotheca fuliginea; 100% in the data set on Uromyces appendiculatus (100 ppm); 83% in the data set on Pyrenophora teres. The logP in data set [1] is 3.87[a].

`CCC1OC(CC)(CC)c2cccc(NC(=O)c3c(C(F)F)nn(C)c3Br)c21` (stereo not drawn) [Example 19]: the Eff. % with Alternaria brassicae came out at 75%; in the data set with Puccinia recondita (100 ppm) it was 98%; with Sphaerotheca fuliginea, 83%; in the data set with Uromyces appendiculatus (100 ppm), 100%. The logP in data set [1] is 3.87[a].

Take `CCC1OCc2cccc(NC(=O)c3c(C(F)F)nn(C)c3Br)c21` (stereo not drawn) [Example 20]: the Eff. % was 98% with Puccinia recondita (100 ppm) and 100% in the data set on Uromyces appendiculatus (100 ppm). The logP in data set [1] was 2.96[a].

Regarding `CCC1OC(C)(C)c2cccc(NC(=O)c3c(C(F)F)nn(C)c3F)c21` (stereo not drawn) [Example 21], the Eff. % in the data set on Puccinia recondita (100 ppm) was determined as 98%; in the data set on Sphaerotheca fuliginea, 98%; with Botrytis cinerea, 93%; with Uromyces appendiculatus (100 ppm) it was 100%. Also, in data set [1], the logP is 2.76[a].

As to `CC(C)C1OC(C)(C)c2cccc(NC(=O)c3c(C(F)F)nn(C)c3F)c21` (stereo not drawn) [Example 22, 3-(difluoromethyl)-5-fluoro-N-(3-isopropyl-1,1-dimethyl-1,3-dihydro-2-benzofuran-4-yl)-1-methyl-1H-pyrazole-4-carboxamide], the Eff. % is on record as 98% in the data set on Puccinia recondita (100 ppm); 100% in the data set on Sphaerotheca fuliginea; 98% with Botrytis cinerea; 99% in the data set with Uromyces appendiculatus (100 ppm); 97% in the data set with Pyrenophora teres. In addition, the chromatographic logP in data set [1] is 3.11.

As to `CCC1OC(CC)(CC)c2cccc(NC(=O)c3cn(C)nc3C(F)F)c21` (stereo not drawn) [Example 23], the Eff. % in the data set with Alternaria brassicae amounted to 88%; in the data set on Puccinia recondita (100 ppm) it was 98%; with Sphaerotheca fuliginea, 100%; with Botrytis cinerea it was 97%; with Uromyces appendiculatus (100 ppm), 100%; in the data set with Pyrenophora teres, 92%. The logP in data set [1] is 3.26[a].

Regarding `CCC1OC(CC)(CC)c2cccc(NC(=O)c3c(C(F)F)nn(C)c3F)c21` (stereo not drawn) [Example 24], the Eff. % is recorded as 75% with Alternaria brassicae; 98% in the data set on Puccinia recondita (100 ppm); 100% with Sphaerotheca fuliginea; 87% with Botrytis cinerea; 100% in the data set with Uromyces appendiculatus (100 ppm); 83% with Pyrenophora teres. Further, the logP in data set [1] was 3.65[a].

With `CC(C)C1OC(C)(C)c2cccc(NC(=O)c3cn(C)nc3C(F)F)c21` (stereo not drawn) [Example 25], the Eff. % is 75% with Alternaria brassicae; 98% in the data set on Puccinia recondita (100 ppm); 100% with Sphaerotheca fuliginea; 98% in the data set on Botrytis cinerea; 99% in the data set on Uromyces appendiculatus (100 ppm); 83% in the data set on Pyrenophora teres. Also, in data set [1], the logP was 2.76[a].

The compound `CCC1OC(CC)(CC)c2cccc(NC(=S)c3cn(C)nc3C(F)F)c21` (stereo not drawn) [Example 26, 3-(difluoromethyl)-1-methyl-N-(1,1,3-triethyl-1,3-dihydro-2-benzofuran-4-yl)-1H-pyrazole-4-carbothioamide] registered a chromatographic logP in data set [1] of 3.76.
